Experimental data from patent US5695970A, “Glucan lyase producing 1,5-anhydrofructose” (priority 1992, dated 1997).
Where two headings read alike, the source gives them in different places.

Key:
α-1,4-glucan lyase = experiment: Inhibition studies of α-1,4-glucan lyase activity; format: biochemical, Gracilariopsis lemaneiformis; settings: products accumulating during the enzyme reaction
Description: The reaction mixture for the assay of α-1,4-glucan lyase was composed of 240 μl 62.5 mM Mops-NaOH containing 6 mg soluble starch (pH 6.2), the enzyme preparation and distilled water to a final volume of 300 μl. The reaction was carried out at 30° C. for 10-30 min. Liberated 1,5-anhydrofructose was determined by monitoring the absorbance at 546 nm after the addition of 3,5-dinitrosalicylic acid reagent. Soluble starch in the reaction mixture may be replaced by other substrates and the final substrate concentration may be varied as indicated in the text. The reaction time and enzyme concentration used in enzyme activity assay have been chosen to ensure the linearity of the reaction rate. One unit of α-1,4-glucan lyase activity is defined as the amount of enzyme which liberates 1μmol of 1,5-anhydrofructose min^-1 under the conditions described above.

[1] = format: physicochemical; settings: for Absorbance at 546 nm: room temperature; for Absorbance (546 nm): Table VII, 10 min after DNS reagent
Description: It can be seen that the reaction was completed in less than 10 minutes. […] (1990) Methods in Plant Biochemistry (Dey, P. M. and Harborne, J. B., eds.), Vol.3, pp. 103-127, Academic Press, London). |Time-course reaction of AF with DNS reagent at room |temperature. The absorbance at 546 nm as a measure of reaction |rate was recorded soon after the addition of 300 μl DNS reagent |to 300 μl sample solution containing varying amount of AF. […] The reaction of AF with 3,5-dinitrosalicylic acid reagent occurred at room temperature and was completed within 10 min (Table VI). A linear relationship exists for AF between the absorbance of 0.1-2.3 at 546 nm and AF content, ranging from 0.3-2.7 μmol or 50-440 μg i 300 μl sample (Table VII). […] This method is applicable to both the smallest substrate as maltose and the largest substrate as amylopectin. |The correlation between AF content and absorbance. |Absorbance was measured 10 min after the addition of |300 μl DNS reagent to 300 μl sample solution |containing varying amount of AF as indicated.

[2] = tested on: hexokinase and glucose-6-phosphate dehydrogenase pathway; experiment: Metabolization of AF by hexokinase and glucose-6-phosphate dehydrogenase; format: biochemical
glucose peroxidase = experiment: Metabolization of AF by glucose peroxidase; format: biochemical

What does the source list for `O=C1CO[C@H](CO)[C@@H](O)[C@@H]1O` [AF, 1,5-anhydrofructose]?
product inhibition: effect on enzyme reaction rate (α-1,4-glucan lyase): negligible effect; reducing power (in words) ([1]; 3,5-dinitrosalicylic acid reagent at room temperature): high reducing power; Absorbance at 546 nm ([1]; AF content 0.55 μmol, reaction time 0 min): 0; Absorbance at 546 nm ([1]; AF content 0.55 μmol, reaction time 1 min): 0.037; Absorbance at 546 nm ([1]; AF content 0.55 μmol, reaction time 2 min): 0.180; Absorbance at 546 nm ([1]; AF content 0.55 μmol, reaction time 3 min): 0.274; Absorbance at 546 nm ([1]; AF content 0.55 μmol, reaction time 4 min): 0.341; Absorbance at 546 nm ([1]; AF content 0.55 μmol, reaction time 5 min): 0.386; Absorbance at 546 nm ([1]; AF content 0.55 μmol, reaction time 6 min): 0.414; Absorbance at 546 nm ([1]; AF content 0.55 μmol, reaction time 7 min): 0.431; Absorbance at 546 nm ([1]; AF content 0.55 μmol, reaction time 8 min): 0.440; Absorbance at 546 nm ([1]; AF content 0.55 μmol, reaction time 9 min): 0.444; Absorbance at 546 nm ([1]; AF content 0.55 μmol, reaction time 10 min): 0.446; Absorbance at 546 nm ([1]; AF content 1.26 μmol, reaction time 0 min): 0; Absorbance at 546 nm ([1]; AF content 1.26 μmol, reaction time 1 min): 0.218; Absorbance at 546 nm ([1]; AF content 1.26 μmol, reaction time 2 min): 0.468; Absorbance at 546 nm ([1]; AF content 1.26 μmol, reaction time 3 min): 0.660; Absorbance at 546 nm ([1]; AF content 1.26 μmol, reaction time 4 min): 0.796; Absorbance at 546 nm ([1]; AF content 1.26 μmol, reaction time 5 min): 0.888; Absorbance at 546 nm ([1]; AF content 1.26 μmol, reaction time 6 min): 0.948; Absorbance at 546 nm ([1]; AF content 1.26 μmol, reaction time 7 min): 0.985; Absorbance at 546 nm ([1]; AF content 1.26 μmol, reaction time 8 min): 1.007; Absorbance at 546 nm ([1]; AF content 1.26 μmol, reaction time 9 min): 1.024; Absorbance at 546 nm ([1]; AF content 1.26 μmol, reaction time 10 min): 1.029; Absorbance at 546 nm ([1]; AF content 2.36 μmol, reaction time 0 min): 0; Absorbance at 546 nm ([1]; AF content 2.36 μmol, reaction time 1 min): 0.476; Absorbance at 546 nm ([1]; AF content 2.36 μmol, reaction time 2 min): 0.930; Absorbance at 546 nm ([1]; AF content 2.36 μmol, reaction time 3 min): 1.271; Absorbance at 546 nm ([1]; AF content 2.36 μmol, reaction time 4 min): 1.510; Absorbance at 546 nm ([1]; AF content 2.36 μmol, reaction time 5 min): 1.671; Absorbance at 546 nm ([1]; AF content 2.36 μmol, reaction time 6 min): 1.775; Absorbance at 546 nm ([1]; AF content 2.36 μmol, reaction time 7 min): 1.840; Absorbance at 546 nm ([1]; AF content 2.36 μmol, reaction time 8 min): 1.880; Absorbance at 546 nm ([1]; AF content 2.36 μmol, reaction time 9 min): 1.905; Absorbance at 546 nm ([1]; AF content 2.36 μmol, reaction time 10 min): 1.920; Absorbance at 546 nm ([1]; AF content 2.84 μmol, reaction time 0 min): 0; Absorbance at 546 nm ([1]; AF content 2.84 μmol, reaction time 1 min): 0.559; Absorbance at 546 nm ([1]; AF content 2.84 μmol, reaction time 2 min): 1.222; Absorbance at 546 nm ([1]; AF content 2.84 μmol, reaction time 3 min): 1.628; Absorbance at 546 nm ([1]; AF content 2.84 μmol, reaction time 4 min): 1.898; Absorbance at 546 nm ([1]; AF content 2.84 μmol, reaction time 5 min): 2.070; Absorbance at 546 nm ([1]; AF content 2.84 μmol, reaction time 6 min): 2.176; Absorbance at 546 nm ([1]; AF content 2.84 μmol, reaction time 7 min): 2.239; Absorbance at 546 nm ([1]; AF content 2.84 μmol, reaction time 8 min): 2.278; Absorbance at 546 nm ([1]; AF content 2.84 μmol, reaction time 9 min): 2.300; Absorbance at 546 nm ([1]; AF content 2.84 μmol, reaction time 10 min): 2.311; Absorbance (546 nm) ([1]; AF content 0.264 μmol): 0.113; Absorbance (546 nm) ([1]; AF content 0.340 μmol): 0.154; Absorbance (546 nm) ([1]; AF content 0.360 μmol): 0.166; Absorbance (546 nm) ([1]; AF content 0.526 μmol): 0.305; Absorbance (546 nm) ([1]; AF content 0.540 μmol): 0.237; Absorbance (546 nm) ([1]; AF content 0.636 μmol): 0.355; Absorbance (546 nm) ([1]; AF content 0.655 μmol): 0.514; Absorbance (546 nm) ([1]; AF content 0.702 μmol): 0.584; Absorbance (546 nm) ([1]; AF content 0.929 μmol): 0.682; Absorbance (546 nm) ([1]; AF content 1.089 μmol): 0.710; Absorbance (546 nm) ([1]; AF content 1.148 μmol): 0.880; Absorbance (546 nm) ([1]; AF content 1.181 μmol): 0.880; Absorbance (546 nm) ([1]; AF content 1.241 μmol): 1.099; Absorbance (546 nm) ([1]; AF content 1.514 μmol): 1.415; Absorbance (546 nm) ([1]; AF content 1.529 μmol): 1.260; Absorbance (546 nm) ([1]; AF content 1.588 μmol): 1.516; Absorbance (546 nm) ([1]; AF content 1.627 μmol): 1.302; Absorbance (546 nm) ([1]; AF content 1.712 μmol): 1.409; Absorbance (546 nm) ([1]; AF content 2.031 μmol): 1.830; Absorbance (546 nm) ([1]; AF content 2.052 μmol): 1.703; Absorbance (546 nm) ([1]; AF content 2.183 μmol): 1.806; Absorbance (546 nm) ([1]; AF content 2.241 μmol): 1.787; Absorbance (546 nm) ([1]; AF content 2.362 μmol): 1.875; Absorbance (546 nm) ([1]; AF content 2.683 μmol): 2.266; Absorbance (546 nm) ([1]; AF content 3.221 μmol): 2.590; metabolization through hexokinase and glucose-6-phosphate dehydrogenase pathway [2]: can not be metabolized; metabolization by glucose peroxidase (glucose peroxidase): can not be metabolized
